According to ChEMBL document CHEMBL1201862, “PubChem BioAssay data set” (2004):
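Five compound concentrations were applied to cells in 96-well plates for 48 hours; endpoints were derived by simple linear interpolation of the resulting dose-response curve. GI50 is the concentration that inhibits growth by half.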 Activity calls are given as the source filed them. Rule as the data show it: active = GI50 up to about 1.1 µM and inactive = higher.

What was measured:
Test in all cases: DTP human tumour cell line panel, 48 h
A549 = system: A549
SF-539 = system: SF-539
SK-OV-3 = system: SK-OV-3
OVCAR-4 = system: OVCAR-4
SK-MEL-2 = system: SK-MEL-2
EKVX = system: EKVX
SF-268 = system: SF-268
OVCAR-8 = system: OVCAR-8
HCT-15 = system: HCT-15
NCI-H23 = system: NCI-H23
RPMI-8226 = system: RPMI-8226
IGROV-1 = system: IGROV-1
UACC-257 = system: UACC-257
OVCAR-3 = system: OVCAR-3
CCRF-CEM = system: CCRF-CEM
SW-620 = system: SW-620
M14 = system: M14
A498 = system: A498
CAKI-1 = system: CAKI-1

SMILES	GI50 (A549)	GI50 (SF-539)	GI50 (SK-OV-3)	GI50 (OVCAR-4)	GI50 (SK-MEL-2)	GI50 (EKVX)	GI50 (SF-268)	GI50 (OVCAR-8)	GI50 (HCT-15)	GI50 (NCI-H23)	GI50 (RPMI-8226)	GI50 (IGROV-1)	GI50 (UACC-257)	GI50 (OVCAR-3)	GI50 (CCRF-CEM)	GI50 (SW-620)	GI50 (M14)	GI50 (A498)	GI50 (CAKI-1)
O=[N+]([O-])c1ccc2occ3c2c1CCC3	> 100 µM (inactive)	> 100 µM (inactive)	> 100 µM (inactive)	> 100 µM (inactive)	> 100 µM (inactive)	> 100 µM (inactive)	> 100 µM (inactive)	> 100 µM (inactive)	> 100 µM	> 100 µM (inactive)	> 100 µM (inactive)	> 100 µM (inactive)	> 100 µM (inactive)	> 100 µM (inactive)	> 100 µM (inactive)	> 100 µM (inactive)	> 100 µM (inactive)	> 100 µM (inactive)	
CC(C)(C)CC(C)(C)c1cc2c(O)c(c1)Cc1cc(C(C)(C)CC(C)(C)C)cc(c1O)Cc1cc(C(C)(C)CC(C)(C)C)cc(c1O)Cc1cc(C(C)(C)CC(C)(C)C)cc(c1O)C2	> 100 µM (inactive)	> 100 µM (inactive)		> 100 µM (inactive)	> 100 µM (inactive)	> 100 µM (inactive)	> 100 µM (inactive)	> 100 µM (inactive)	> 100 µM	> 100 µM (inactive)	> 100 µM (inactive)	> 100 µM (inactive)	> 100 µM (inactive)	> 100 µM (inactive)	> 100 µM (inactive)	> 100 µM (inactive)	> 100 µM (inactive)		
CCn1c2ccccc2c2ccc3c(c21)C(=O)c1ccccc1C3=O	> 100 µM (inactive)	> 100 µM (inactive)	> 100 µM (inactive)	> 100 µM (inactive)		44.8 µM (inactive)	> 100 µM (inactive)	> 100 µM (inactive)	> 100 µM	> 100 µM (inactive)	> 100 µM (inactive)	> 100 µM (inactive)	> 100 µM (inactive)		74.3 µM (inactive)	> 100 µM (inactive)	> 100 µM (inactive)	> 100 µM (inactive)	
Cc1ccc(/C=C/C(=O)c2ccc(Cl)c(Cl)c2)cc1	> 100 µM (inactive)		> 10 µM (inactive)	> 100 µM (inactive)	> 100 µM (inactive)	> 100 µM (inactive)	> 100 µM (inactive)	> 100 µM (inactive)		> 100 µM (inactive)		> 100 µM (inactive)	> 100 µM (inactive)	> 100 µM (inactive)	> 100 µM (inactive)	> 100 µM (inactive)	> 100 µM (inactive)	> 100 µM (inactive)	> 100 µM (inactive)
O=C(Nc1ccccc1)c1cc2cc(CCl)ccc2oc1=O	99.3 µM (inactive)		> 100 µM (inactive)	> 100 µM (inactive)	4.8 µM (inactive)	> 100 µM (inactive)	47 µM (inactive)	> 100 µM (inactive)	> 100 µM	16.5 µM (inactive)	> 100 µM (inactive)	> 100 µM (inactive)	> 100 µM (inactive)	> 100 µM (inactive)	> 100 µM (inactive)	> 100 µM (inactive)	> 100 µM (inactive)	13 µM (inactive)	> 100 µM (inactive)
CNC1=Nc2ccccc2C(=S)N2CSC[C@@H]12	> 100 µM (inactive)	> 100 µM (inactive)	> 100 µM (inactive)	> 100 µM (inactive)	> 100 µM (inactive)		> 100 µM (inactive)	> 100 µM (inactive)	> 100 µM	> 100 µM (inactive)	> 100 µM (inactive)			> 100 µM (inactive)		> 100 µM (inactive)	> 100 µM (inactive)	> 100 µM (inactive)	> 100 µM (inactive)
C1CCN(c2nc(=[N+]3CCCCC3)ss2)CC1	55.8 µM (inactive)	> 100 µM (inactive)	71.9 µM (inactive)	> 100 µM (inactive)	> 100 µM (inactive)	> 100 µM (inactive)	82 µM (inactive)	> 100 µM (inactive)	> 100 µM	73.3 µM (inactive)	> 100 µM (inactive)	> 100 µM (inactive)	> 100 µM (inactive)		43.7 µM (inactive)	> 100 µM (inactive)	> 100 µM (inactive)	> 100 µM (inactive)	> 100 µM (inactive)
CCOc1ccc(/N=N/c2c(-c3ccccc3)nn(C(=O)CC(=O)Nc3ccccc3Cl)c2-c2ccccc2)cc1	67.3 µM (inactive)	58.3 µM (inactive)	> 100 µM (inactive)	47.4 µM (inactive)	> 100 µM (inactive)	44 µM (inactive)	39 µM (inactive)	89.7 µM (inactive)		56.9 µM (inactive)	37.4 µM (inactive)	> 100 µM (inactive)	80.4 µM (inactive)	35.8 µM (inactive)	25.4 µM (inactive)	> 100 µM (inactive)	> 100 µM (inactive)		23.4 µM (inactive)
C/C=C/COC(=O)CO[N+](=O)[O-]	> 100 µM (inactive)	> 100 µM (inactive)	> 100 µM (inactive)	> 100 µM (inactive)	> 100 µM (inactive)	> 100 µM (inactive)	> 100 µM (inactive)	> 100 µM (inactive)	> 100 µM	> 100 µM (inactive)	> 100 µM (inactive)	> 100 µM (inactive)	> 100 µM (inactive)	> 100 µM (inactive)	> 100 µM (inactive)	> 100 µM (inactive)	> 100 µM (inactive)		> 100 µM (inactive)
NCCSc1nc(-c2ccccc2)c(-c2ccccc2)o1	> 100 µM (inactive)	> 100 µM (inactive)	73.3 µM (inactive)	46.7 µM (inactive)	> 100 µM (inactive)	> 100 µM (inactive)	> 100 µM (inactive)	> 100 µM (inactive)	> 100 µM	17.7 µM (inactive)	88.3 µM (inactive)	71.4 µM (inactive)	41.2 µM (inactive)	> 100 µM (inactive)		> 100 µM (inactive)	> 100 µM (inactive)	> 100 µM (inactive)	> 100 µM (inactive)
O=C1CCNC(=O)NC1	> 100 µM (inactive)		> 100 µM (inactive)	> 100 µM (inactive)	> 100 µM (inactive)	> 100 µM (inactive)	> 100 µM (inactive)	> 100 µM (inactive)	> 100 µM		> 100 µM (inactive)	> 100 µM (inactive)	> 100 µM (inactive)	> 100 µM (inactive)	> 100 µM (inactive)	> 100 µM (inactive)	> 100 µM (inactive)	> 100 µM (inactive)	> 100 µM (inactive)
N=C1N(c2ccccc2)C(=O)C23CCCC2C13N1CCOCC1 (centres undefined)	> 100 µM (inactive)	> 100 µM (inactive)	> 100 µM (inactive)	> 100 µM (inactive)	> 100 µM (inactive)	> 100 µM (inactive)	> 100 µM (inactive)	> 100 µM (inactive)	> 100 µM	> 100 µM (inactive)	> 100 µM (inactive)	> 100 µM (inactive)	> 100 µM (inactive)	> 100 µM (inactive)	> 100 µM (inactive)	> 100 µM (inactive)	> 100 µM (inactive)		> 100 µM (inactive)
CC(NC(=O)c1ccccc1)C(=O)N(Cc1ccccc1)Cc1ccccc1 (centres undefined)	30.2 µM (inactive)	55.3 µM (inactive)	33.7 µM (inactive)	31.2 µM (inactive)	20.7 µM (inactive)		35.4 µM (inactive)		32.1 µM	24.5 µM (inactive)	21 µM (inactive)	34 µM (inactive)	40.2 µM (inactive)		21.6 µM (inactive)	51.1 µM (inactive)	21 µM (inactive)	25.6 µM (inactive)	34.9 µM (inactive)
Nc1nc2c3nc(Nc4ccccc4)sc3nc(=O)n2c2sc(Nc3ccccc3)nc12	> 100 µM (inactive)	> 100 µM (inactive)	> 100 µM (inactive)	> 100 µM (inactive)		> 100 µM (inactive)	> 100 µM (inactive)	> 100 µM (inactive)	> 100 µM	> 100 µM (inactive)	> 100 µM (inactive)	> 100 µM (inactive)	> 100 µM (inactive)		> 100 µM (inactive)	> 100 µM (inactive)	> 100 µM (inactive)	> 100 µM (inactive)	
CN(C)CCNc1nc(-c2cccs2)cc(-c2cccs2)n1	15.6 µM (inactive)	15.1 µM (inactive)	> 10 µM (inactive)	> 10 µM (inactive)	16.8 µM (inactive)			9.84 µM (inactive)	15.9 µM	10.5 µM (inactive)		24.4 µM (inactive)	11.6 µM (inactive)	22.6 µM (inactive)	4.41 µM (inactive)	13.9 µM (inactive)	12.4 µM (inactive)	11.9 µM (inactive)	> 10 µM (inactive)
CC1(C)C(=O)CCC(=O)C(C)(C)C2=CC=C(O2)C(C)(C)C(=O)CCC(=O)C(C)(C)C2=CC=C1O2	> 100 µM (inactive)		> 100 µM (inactive)	> 100 µM (inactive)	> 100 µM (inactive)	> 100 µM (inactive)	> 100 µM (inactive)	> 100 µM (inactive)	> 100 µM	> 100 µM (inactive)		> 100 µM (inactive)	> 100 µM (inactive)	> 100 µM (inactive)	> 100 µM (inactive)	> 100 µM (inactive)		> 100 µM (inactive)	> 100 µM (inactive)
